# Assay results as given in patent US12577232B2, “N-heterocycle substituted tryptamine derivatives and methods of using” (ENVERIC B[…] INC., priority 2024, dated 2026).
# Molecular target: T1, 5-HT2A receptor (Homo sapiens, UniProt P28223)
# T1 construct: purchased PerkinElmer ES-313-M400UA
# Assay: Functional cell-based 5-HT2A assay, antagonism mode (CHO-K1/5-HT2A, 100 nM serotonin, calcium flux)
# Details: CHO-K1/5-HT2A cells, with 100 nM serotonin
# From the text: A variety of 5-HT2A receptor engagement modes have been correlated with positive outcomes in the treatment of neurological disorders. While agonism is associated with a host of favourable effects, antagonizing the 5-HT2A receptor is also an attractive pharmacological approach. For example, antagonism is known to alleviate both dyskinesisa and psychosis in Parkinson's Disorder and holds promise for other psychiatric diseases (Mestre et al., 2013, Expert Opin. Investig. Drugs 22:411-421). Similarly positive outcomes are noted for inverse agonists (Cummings et al., 2014, Lancet, 383:533-540; Roberts, 2006, Curr. Opin. Invest. Drugs 7:653-660). […]
# Stimulation of 5-HT2A coupled to the Gq family proteins leads to activation of the phospholipase C (PLC) pathway, ultimately resulting in the accumulation of cytosolic calcium (Cussac et al., Europ. J. Pharmacol., 2008, 594 (1-3), 32-38). […] Kinetic increases in intracellular calcium levels were measured immediately after addition of ligands every 6.4 s for a total of 3 min using the FlexStation 3 multimode microplate reader and SoftMax Pro 7.1 analysis software (Molecular Devices, moleculardevices.com). […] IC50 values were calculated from the normalized data from GraphPad PRISM software. […]
# T1 sequence (P28223 whole entry): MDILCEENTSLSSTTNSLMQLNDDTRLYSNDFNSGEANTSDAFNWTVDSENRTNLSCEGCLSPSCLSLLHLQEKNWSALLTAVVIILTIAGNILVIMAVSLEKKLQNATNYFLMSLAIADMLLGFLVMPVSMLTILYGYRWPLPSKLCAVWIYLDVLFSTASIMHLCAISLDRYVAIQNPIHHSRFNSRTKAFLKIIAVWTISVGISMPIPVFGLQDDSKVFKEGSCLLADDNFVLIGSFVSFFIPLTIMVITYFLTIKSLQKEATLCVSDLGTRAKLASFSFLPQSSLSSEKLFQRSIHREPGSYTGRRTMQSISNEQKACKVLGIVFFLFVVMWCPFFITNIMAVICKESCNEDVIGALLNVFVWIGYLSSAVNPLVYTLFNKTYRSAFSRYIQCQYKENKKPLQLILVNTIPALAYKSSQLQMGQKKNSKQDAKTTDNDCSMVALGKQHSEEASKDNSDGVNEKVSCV
smiles,measurement,value
CN(C)CCc1c[nH]c2cc(F)cc(N3CCOCC3)c12 [Compound (XV)],"engagement at the 5-HT2A receptor, antagonist mode",antagonism
